This note sets out measurements from ChEMBL document CHEMBL5625175, “Quinazoline-based VEGFR-2 inhibitors as potential anti-angiogenic agents: A contemporary perspective of SAR and molecular docking studies” (Eur J Med Chem, 2023).

As a reminder, the IC50 is the concentration at which inhibition is half-maximal.

SMILES strings stand for the structures. Converted amounts (≈) assume the structure as drawn.

Series [1] concerns MCF7. In words: cells. The following applies: Homo sapiens, MCF7, 48 h.
In another series the test system is B16. Nature of the series: Antiproliferative activity against mouse B16 cells assessed as reduction in cell viability incubated for 48 hrs by MTT assay. Type of series: functional, cell-based. The following applies: B16, 48 h. (In general: Formazan colour is commonly taken as a measure of viable cells.)
Series [2] relates to HCT-116. In words: cells. To be noted: Homo sapiens, HCT-116, 48 h.
For series [3], the system named is HCT-116. Nature of the series: Cytotoxicity against human HCT-116 cells assessed as cell growth inhibition. The series is classed as functional, cell-based.
The next series has as its system WISH. In words: Cytotoxicity against human WISH cells assessed as cell growth inhibition. Type of series: functional, cell-based.
The test system of series [4] is HepG2. In words: Cytotoxicity against human HepG2 cells assessed as cell growth inhibition. The series is classed as functional, cell-based.
Series [5] deals with MCF7. Nature of the series: cells. The following applies: Homo sapiens, MCF7, 48 h. This is another data set of the same source.
The subject of the next series is Macrophage. Nature of the series: cells. The following applies: Homo sapiens, 48 h.
In the next series the test system is A549. In words: cells. To be noted: Homo sapiens, A549, 48 h.
For another series, the system named is NCI-H460. In words: cells. To be noted: Homo sapiens, NCI-H460, 48 h.
For series [6], the target named is Vascular endothelial growth factor receptor 1 (Homo sapiens, UniProt P17948). In words: Inhibition of VEGFR-1 (unknown origin).
Series [7] has as its target T1, Vascular endothelial growth factor receptor 2 (Homo sapiens, UniProt P35968).
The nature of series [8]: Intrinsic clearance in human hepatocytes at 0.5 uM measured after 10 mins by LC-MS/MS analysis. Type of series: ADME, cell-based, Hepatocyte.
Series [9] has as its target Epidermal growth factor receptor (Homo sapiens, UniProt P00533). Nature of the series: Inhibition of human recombinant EGFR using poly(Glu-Tyr) as substrate at 4:1 ratio in presence of ATP incubated for 60 mins by ELISA analysis. Background: An ELISA detects its analyte on a solid surface through an enzyme-linked reagent.
In series [10] the target is Serine/threonine-protein kinase B-raf (Homo sapiens, UniProt P15056). Nature of the series: Inhibition of human recombinant B-Raf using […] as substrate incubated for 40 mins in presence of [gamma33P]ATP by scintillation counter based kinase assay.
Series [11] deals with T1, Vascular endothelial growth factor receptor 2. Nature of the series: Inhibition of VEGFR-2 (unknown origin) kinase activity using poly(Glu-Tyr) at 4:1 ratio as substrate in presence of ATP incubated for 60 mins by ELISA.
Series [12] deals with RAF proto-oncogene serine/threonine-protein kinase (Homo sapiens, UniProt P04049). In words: Inhibition of human recombinant C-Raf using Glu-Tyr-Met-Pro-Met-Glu as substrate incubated for 60 mins by radiometric kinase assay.
Series [13] deals with Serine/threonine-protein kinase B-raf (Homo sapiens, UniProt P15056, V600E). In words: Inhibition of B-RAF V600E mutant (unknown origin) using […] as substrate incubated for 40 mins in presence of [gamma33P]ATP by scintillation counter based kinase assay.
In series [14] the test system is HepG2. In words: Antiproliferative activity against human HepG2 cells assessed as reduction in cell viability measured after 72 hrs by MTT assay. The series is classed as functional, cell-based. To be noted: HepG2, 72 h.
The subject of series [15] is MCF7. Nature of the series: Antiproliferative activity against human MCF7 cells assessed as reduction in cell viability measured after 72 hrs by MTT assay. Type of series: functional, cell-based. To be noted: MCF7, 72 h.
A further series deals with MHCC97H. In words: Antiproliferative activity against human MHCC97H cells assessed as reduction in cell viability incubated for 48 hrs by CCK-8 assay. Type of series: functional, cell-based.
In the next series the test system is L02. In words: Cytotoxicity against human L02 cells assessed as cell growth inhibition measured after 48 hrs by CCK-8 assay. Type of series: functional, cell-based. The following applies: L02, 48 h.
A further series deals with HEK293. Nature of the series: Cytotoxicity against HEK293 cells assessed as cell growth inhibition measured after 48 hrs by CCK-8 assay. The series is classed as functional, cell-based. To be noted: Homo sapiens, HEK293, 48 h.
The subject of another series is HUVEC. Nature of the series: Antiproliferative activity against HUVEC cells assessed as reduction in cell viability incubated for 48 hrs by CCK-8 assay. To be noted: Homo sapiens. Type of series: functional, cell-based.
For series [16], the system named is MCF7. Nature of the series: Antiproliferative activity against human MCF7 cells assessed as cell growth inhibition measured after 48 hrs by MTT assay. The series is classed as functional, cell-based. The following applies: MCF7, 48 h.
Series [17] concerns HCT-116. Nature of the series: Antiproliferative activity against human HCT-116 cells assessed as cell growth inhibition measured after 48 hrs by MTT assay. Type of series: functional, cell-based. To be noted: HCT-116, 48 h.
In series [18] the target is Vascular endothelial growth factor receptor 3 (Homo sapiens, UniProt P35916). Nature of the series: Inhibition of VEGFR-3 (unknown origin).

T1 sequence (P35968 whole entry): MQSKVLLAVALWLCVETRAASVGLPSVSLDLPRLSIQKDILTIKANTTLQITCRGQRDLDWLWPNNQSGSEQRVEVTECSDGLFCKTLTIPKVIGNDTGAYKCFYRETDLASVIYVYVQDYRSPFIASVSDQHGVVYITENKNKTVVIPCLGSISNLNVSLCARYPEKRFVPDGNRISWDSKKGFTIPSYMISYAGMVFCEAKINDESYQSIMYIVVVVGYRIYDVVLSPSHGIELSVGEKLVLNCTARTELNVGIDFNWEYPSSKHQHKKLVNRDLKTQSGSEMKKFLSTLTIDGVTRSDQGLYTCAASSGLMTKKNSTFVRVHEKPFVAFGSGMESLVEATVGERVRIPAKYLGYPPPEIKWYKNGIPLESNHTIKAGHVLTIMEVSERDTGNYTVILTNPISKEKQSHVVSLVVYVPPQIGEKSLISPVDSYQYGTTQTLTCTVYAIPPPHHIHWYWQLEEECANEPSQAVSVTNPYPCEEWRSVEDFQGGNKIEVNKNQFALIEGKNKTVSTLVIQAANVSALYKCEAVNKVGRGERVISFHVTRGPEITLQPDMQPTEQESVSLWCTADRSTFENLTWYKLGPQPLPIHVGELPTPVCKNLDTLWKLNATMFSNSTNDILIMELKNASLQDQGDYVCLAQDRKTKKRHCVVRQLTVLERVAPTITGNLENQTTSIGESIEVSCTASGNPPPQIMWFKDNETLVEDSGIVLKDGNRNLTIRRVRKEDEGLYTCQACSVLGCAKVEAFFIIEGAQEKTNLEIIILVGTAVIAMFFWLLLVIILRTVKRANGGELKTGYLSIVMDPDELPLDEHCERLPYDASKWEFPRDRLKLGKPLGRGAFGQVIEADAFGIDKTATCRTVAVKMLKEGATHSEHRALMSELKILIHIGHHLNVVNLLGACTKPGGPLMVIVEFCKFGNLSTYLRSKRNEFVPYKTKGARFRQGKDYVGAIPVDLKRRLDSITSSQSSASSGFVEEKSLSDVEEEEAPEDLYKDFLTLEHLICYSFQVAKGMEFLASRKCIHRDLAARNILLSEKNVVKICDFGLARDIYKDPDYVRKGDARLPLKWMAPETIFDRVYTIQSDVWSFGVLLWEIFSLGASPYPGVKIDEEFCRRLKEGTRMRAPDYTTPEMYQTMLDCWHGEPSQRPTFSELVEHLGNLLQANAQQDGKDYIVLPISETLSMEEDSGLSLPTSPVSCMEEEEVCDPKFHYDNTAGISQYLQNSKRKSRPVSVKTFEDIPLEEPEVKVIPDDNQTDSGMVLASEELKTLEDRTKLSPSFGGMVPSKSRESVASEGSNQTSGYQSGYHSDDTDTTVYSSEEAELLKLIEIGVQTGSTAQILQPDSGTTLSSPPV
Sequence of Vascular endothelial growth factor receptor 1 (P17948 whole entry): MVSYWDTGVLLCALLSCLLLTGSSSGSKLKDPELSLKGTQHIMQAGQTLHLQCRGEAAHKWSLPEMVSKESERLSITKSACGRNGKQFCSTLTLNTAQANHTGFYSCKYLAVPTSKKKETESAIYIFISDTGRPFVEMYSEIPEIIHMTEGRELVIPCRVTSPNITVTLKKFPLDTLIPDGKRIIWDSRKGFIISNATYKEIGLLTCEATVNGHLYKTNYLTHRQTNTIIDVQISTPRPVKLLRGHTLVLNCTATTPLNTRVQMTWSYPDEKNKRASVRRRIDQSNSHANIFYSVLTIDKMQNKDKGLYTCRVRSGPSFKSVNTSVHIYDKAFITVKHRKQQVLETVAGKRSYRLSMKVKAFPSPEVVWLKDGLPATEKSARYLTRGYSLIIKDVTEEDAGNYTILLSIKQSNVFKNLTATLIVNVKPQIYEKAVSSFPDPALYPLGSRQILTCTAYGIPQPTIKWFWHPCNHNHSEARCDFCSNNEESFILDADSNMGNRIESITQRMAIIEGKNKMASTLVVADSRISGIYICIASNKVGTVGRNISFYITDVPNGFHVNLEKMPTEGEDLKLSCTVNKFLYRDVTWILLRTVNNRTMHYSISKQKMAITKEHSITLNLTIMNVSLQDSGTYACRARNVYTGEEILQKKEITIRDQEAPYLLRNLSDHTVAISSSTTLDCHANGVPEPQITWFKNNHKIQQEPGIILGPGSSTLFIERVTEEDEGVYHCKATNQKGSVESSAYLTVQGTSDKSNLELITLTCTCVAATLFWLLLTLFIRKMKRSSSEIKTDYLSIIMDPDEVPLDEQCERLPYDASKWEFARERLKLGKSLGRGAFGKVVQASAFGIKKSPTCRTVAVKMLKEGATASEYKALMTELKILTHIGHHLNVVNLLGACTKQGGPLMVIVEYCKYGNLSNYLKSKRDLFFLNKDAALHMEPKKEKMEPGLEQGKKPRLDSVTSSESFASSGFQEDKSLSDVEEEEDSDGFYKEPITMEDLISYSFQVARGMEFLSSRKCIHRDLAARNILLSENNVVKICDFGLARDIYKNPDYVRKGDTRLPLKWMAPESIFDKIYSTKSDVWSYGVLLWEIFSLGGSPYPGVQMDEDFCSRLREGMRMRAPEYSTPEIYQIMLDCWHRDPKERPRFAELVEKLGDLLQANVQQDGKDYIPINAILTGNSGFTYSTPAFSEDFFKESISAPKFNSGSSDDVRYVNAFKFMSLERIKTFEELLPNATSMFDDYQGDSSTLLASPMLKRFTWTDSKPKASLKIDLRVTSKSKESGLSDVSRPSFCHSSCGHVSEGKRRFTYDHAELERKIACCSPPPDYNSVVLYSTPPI
Sequence of Serine/threonine-protein kinase B-raf (Homo sapiens, UniProt P15056) (P15056 whole entry): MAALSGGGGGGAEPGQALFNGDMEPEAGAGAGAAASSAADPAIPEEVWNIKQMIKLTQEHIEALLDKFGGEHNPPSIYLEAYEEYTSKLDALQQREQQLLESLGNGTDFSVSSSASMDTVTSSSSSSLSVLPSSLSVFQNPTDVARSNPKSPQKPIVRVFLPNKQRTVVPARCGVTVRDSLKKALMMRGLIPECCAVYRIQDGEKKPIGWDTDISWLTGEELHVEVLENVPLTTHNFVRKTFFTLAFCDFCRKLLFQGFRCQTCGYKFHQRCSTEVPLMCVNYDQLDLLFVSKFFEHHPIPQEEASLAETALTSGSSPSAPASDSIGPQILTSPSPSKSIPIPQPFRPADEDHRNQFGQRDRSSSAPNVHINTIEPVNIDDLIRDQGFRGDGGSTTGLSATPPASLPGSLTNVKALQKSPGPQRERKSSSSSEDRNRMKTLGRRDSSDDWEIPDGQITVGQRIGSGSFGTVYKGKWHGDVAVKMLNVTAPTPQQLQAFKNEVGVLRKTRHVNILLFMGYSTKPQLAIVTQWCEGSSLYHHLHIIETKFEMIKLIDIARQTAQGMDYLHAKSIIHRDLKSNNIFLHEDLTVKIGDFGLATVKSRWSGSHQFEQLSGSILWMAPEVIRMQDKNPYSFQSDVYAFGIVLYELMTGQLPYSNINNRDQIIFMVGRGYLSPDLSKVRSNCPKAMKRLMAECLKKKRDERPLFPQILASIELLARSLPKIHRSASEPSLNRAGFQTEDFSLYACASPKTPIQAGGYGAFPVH
Sequence of RAF proto-oncogene serine/threonine-protein kinase (P04049 whole entry): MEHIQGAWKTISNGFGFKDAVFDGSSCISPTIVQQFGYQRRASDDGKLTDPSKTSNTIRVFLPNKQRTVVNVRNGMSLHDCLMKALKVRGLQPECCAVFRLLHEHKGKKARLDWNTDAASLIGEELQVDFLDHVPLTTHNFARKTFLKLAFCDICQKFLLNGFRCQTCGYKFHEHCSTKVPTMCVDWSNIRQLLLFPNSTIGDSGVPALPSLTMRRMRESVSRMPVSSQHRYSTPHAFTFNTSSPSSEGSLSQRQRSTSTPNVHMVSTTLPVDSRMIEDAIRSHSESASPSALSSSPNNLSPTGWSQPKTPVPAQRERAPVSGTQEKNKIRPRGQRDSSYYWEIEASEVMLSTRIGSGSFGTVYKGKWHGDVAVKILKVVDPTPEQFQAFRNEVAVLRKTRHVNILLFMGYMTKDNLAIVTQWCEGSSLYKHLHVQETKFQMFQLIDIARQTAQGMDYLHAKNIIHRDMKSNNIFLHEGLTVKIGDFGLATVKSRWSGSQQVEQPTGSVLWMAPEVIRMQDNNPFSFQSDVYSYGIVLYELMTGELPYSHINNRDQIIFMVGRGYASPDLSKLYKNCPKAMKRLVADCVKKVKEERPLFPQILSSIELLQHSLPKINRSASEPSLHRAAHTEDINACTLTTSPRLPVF
Sequence of Serine/threonine-protein kinase B-raf (Homo sapiens, UniProt P15056, V600E) (P15056 2-766 V600E limits assumed): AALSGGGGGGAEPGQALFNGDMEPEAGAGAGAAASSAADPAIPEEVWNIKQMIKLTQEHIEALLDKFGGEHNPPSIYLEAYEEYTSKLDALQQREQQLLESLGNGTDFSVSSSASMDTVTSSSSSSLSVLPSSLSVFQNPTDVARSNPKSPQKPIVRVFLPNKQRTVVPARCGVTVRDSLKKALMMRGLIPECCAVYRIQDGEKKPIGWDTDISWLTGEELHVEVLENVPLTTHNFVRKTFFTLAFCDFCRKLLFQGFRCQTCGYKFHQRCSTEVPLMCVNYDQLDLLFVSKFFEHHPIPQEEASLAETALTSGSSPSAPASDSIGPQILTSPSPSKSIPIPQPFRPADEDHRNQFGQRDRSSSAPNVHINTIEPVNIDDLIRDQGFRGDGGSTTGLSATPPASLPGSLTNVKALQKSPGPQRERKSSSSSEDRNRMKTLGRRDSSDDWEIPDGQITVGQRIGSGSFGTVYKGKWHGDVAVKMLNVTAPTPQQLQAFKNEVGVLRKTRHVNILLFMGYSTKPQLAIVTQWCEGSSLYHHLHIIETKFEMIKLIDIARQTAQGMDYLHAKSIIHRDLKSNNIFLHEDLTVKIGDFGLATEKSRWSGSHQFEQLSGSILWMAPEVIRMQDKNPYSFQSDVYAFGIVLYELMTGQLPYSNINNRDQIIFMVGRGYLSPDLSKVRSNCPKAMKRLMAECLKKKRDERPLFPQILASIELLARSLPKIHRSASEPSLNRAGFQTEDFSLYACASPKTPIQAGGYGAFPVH

`COc1cc2ncnc(Oc3cccc(NC(=S)Nc4ccc(Cl)c(C(F)(F)F)c4)c3)c2cc1OC`: the IC50 with MCF7 [1] was 17.7 µM; in the series on B16 it was 6.11 µM; in the series on HCT-116 [2] it was 9.13 µM.
For `Cc1ccc2nc(-c3cccnc3)nc(NNC(=S)NC3CCCCC3)c2c1`, the IC50 in the series on HCT-116 [3] was 3.37 µM; in the series with WISH it was 49.6 µM; in the series with HepG2 [4], 10.4 µM.
Consider `CNC(=O)c1cc(Oc2ccc(NC(=O)Nc3ccc(Cl)c(C(F)(F)F)c3)cc2)ccn1` [SORAFENIB], for which the half-inhibitory concentration (IC50) with MCF7 [1] was 17.9 µM; with B16, 9.29 µM; with HCT-116 [3] it was 6.82 µM; in the series on HCT-116 [2] it was 10.6 µM; in the series with WISH it was 17.5 µM; with HepG2 [4], 19.3 µM.
`COc1ccc(Cc2nnc(COc3ncnc4ccccc34)o2)cc1OC`: the IC50 in the series with MCF7 [5] was found to be 0.35 µM; in the series on Macrophage, 288 µM; in the series on A549, 0.58 µM; in the series on NCI-H460, 0.39 µM.
Take `COc1cc2nccc(Oc3ccc(NC(=O)Nc4cc(C)on4)c(Cl)c3)c2cc1OC` [TIVOZANIB]: the results for the IC50 with Macrophage, in the series on A549 and with NCI-H460 were 227 µM, 0.62 µM and 0.39 µM, respectively.
For `COc1cc2ncnc(Nc3ccsc3C(=O)Nc3ccc(F)c(Cl)c3)c2cc1OC`, the IC50 in series [6] stood at 0.11 µM; in [7] it was 0.087 µM.
Turning to `COc1cc2ncnc(Nc3cc(O)c(C)cc3F)c2cc1OC`, the CLH in [8] was 91.9 µL/min.
Regarding `COc1cc2ncnc(Oc3cccc(NC(=S)Nc4ccc(Br)c(C(F)(F)F)c4)c3)c2cc1OC`, the IC50 in the series with MCF7 [1] came out at 15.7 µM; with B16 it was 5.57 µM; in the series with HCT-116 [2] it was 8.35 µM.
As for `NC(=O)CCn1cc(-c2ccc3ncnc(Nc4cc(O)c(F)cc4F)c3c2)nn1`, the IC50 in series [9] was found to be 0.073 µM; in series [10], 0.057 µM; in series [11], 0.007 µM; in [12] it was 1 µM; in series [13] it was 0.051 µM.
As to `Cc1ncc([N+](=O)[O-])n1CCOc1ncnc2ccc([N+](=O)[O-])cc12`, the IC50 in the series with MCF7 [5] came to 1.61 µM; with Macrophage it was 290 µM; in the series with A549, 1.52 µM; with NCI-H460, 1.23 µM.
For the compound `CCn1c(SCCCN2C(=O)c3ccccc3C2=O)nc2cc3ccccc3cc2c1=O`, the IC50 was determined as 26 µM in the series with HepG2 [14] and 9.4 µM with MCF7 [15].
Turning to `COCCOc1cc2ncnc(Oc3ccc(NC(=O)C4(C(=O)Nc5ccc(F)cc5)CC4)cc3F)c2c2c1OCCO2`, the IC50 with MHCC97H is 15.1 µg/mL (≈ 25.5 µM); with L02, 12.2 µg/mL (≈ 20.6 µM); in the series with HEK293 it was 11.9 µg/mL (≈ 20.1 µM); in the series with HUVEC it was 12.6 µg/mL (≈ 21.3 µM).
Consider `C/C(=N\NC(=O)c1ccccc1O)c1ccc(NC(=O)CSc2nc3ccccc3c(=O)n2-c2ccccc2)cc1`, for which the figures for the concentration for half-maximal inhibition (IC50) with MCF7 [16] and in the series with HCT-116 [17] were 6.77 µM and 5 µM, respectively.
`CCCNC(=O)Nc1ccc(Nc2ncnc3cc(OC)c(OC)cc23)cc1Cl`: the IC50 in series [6] worked out at 0.17 µM; in [7] it was 0.16 µM; in [18], 0.125 µM.
